# Assay results published in patent US6759409B2, “Inhibitors of papilloma virus” (Boehringer Ingelheim (Canada) Ltd., priority 2000, dated 2004).
# Target: T1, HPV-11 E1-E2-DNA origin of replication complex (Human papillomavirus 11, UniProt P04015)
# T1 construct: approximately 100-200 ng of purified E1
# Experiment: E2-dependent E1 DNA binding assay (E1-E2 DNA assay)
# Method: This particular assay determines the ability of a test compound to inhibit the activity (IC50) of HPV-11 DNA replication. More specifically, in the assay described herein, the inhibitory activity of the test compound is evaluated based on its ability to interfere with the E1-E2-DNA origin of replication interaction, thereby inhibiting initiation of viral DNA replication.
# This assay was modeled on a similar assay for SV40 T Antigen described by McKay (J. Mol. Biol., 1981,145:471). A 400 bp radiolabeled DNA probe, containing the HPV-11 origin of replication (Chiang et al., 1992, Proc. Natl. Acad. Sci. USA 89:5799) was produced by pcr, using plasmid pBluescript™ SK encoding the origin (nucleotides 7886-61 of the HPV-11 genome in unique BAMH1 site) as template and primers flanking the origin. Radiolabel was incorporated as [^33P]dCTP. Binding assay buffer consisted of: 20 mM Tris pH 7.6, 100 mM NaCl, 1 mM DTT, 1 mM EDTA.
# Other reagents used were protein A-SPA beads (type II, Amersham) and K72 rabbit polyclonal antiserum, raised against a peptide corresponding to the C-terminal 14 amino acids of HPV-11 E1. Following the protocol from Amersham, one bottle of beads was mixed with 25 mL of binding assay buffer. For the assay, a saturating amount of K72 antiserum was added to the beads and the mixture was incubated for 1 h, washed with one volume of binding assay buffer, and then resuspended in the same volume of fresh binding assay buffer. Binding reactions contained 8 ng of E2, approximately 100-200 ng of purified E1, and 0.4 ng of radiolabeled probe in a total of 80 μL of binding assay buffer. After 1 h at room temperature, 25 μL of K72 antibody-SPA bead suspension was added to with the binding reaction and mixed. After an additional hour of incubation at room temperature, the reactions were centrifuged briefly to pellet the beads and the extent of complex formation was determined by scintillation counting on a Packard TopCount™. Typically, the signal for reactions containing E1 and E2 was 20-30 fold higher than the background observed when either E1, E2, or both was omitted.
# [1] = Table 1A, enantiomerically pure cis/cis isomer (form 1)
# [2] = Table 1, racemic cis/cis isomer (form 1)
# T1 sequence (P04015 whole entry, one chain of several): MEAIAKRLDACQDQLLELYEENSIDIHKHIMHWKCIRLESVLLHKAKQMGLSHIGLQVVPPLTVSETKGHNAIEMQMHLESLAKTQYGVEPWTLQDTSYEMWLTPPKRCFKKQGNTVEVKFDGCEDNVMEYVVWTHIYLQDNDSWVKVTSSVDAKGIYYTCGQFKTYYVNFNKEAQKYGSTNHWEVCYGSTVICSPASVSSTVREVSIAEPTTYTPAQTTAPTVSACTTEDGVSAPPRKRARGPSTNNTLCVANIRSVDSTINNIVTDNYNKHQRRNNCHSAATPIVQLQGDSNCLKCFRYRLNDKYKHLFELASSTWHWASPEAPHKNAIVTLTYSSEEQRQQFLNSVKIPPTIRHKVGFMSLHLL
structure (smiles),measurement,setting,value
"Cc1ccc2c(c1)C(=O)C1(OC(c3ccc(Cl)c(Cl)c3)C(C(=O)Nc3ccc(-c4csnn4)cc3)C1C(=O)O)C2=O (single isomer, unassigned) [A1007]",IC50,[1],0.5 to 5 µM
CC(=O)c1ccc(NC(=O)C2C(/C=C/c3ccccc3)OC3(C(=O)c4ccccc4C3=O)C2C(=O)O)cc1 (stereo not shown) [compound 4005],IC50,"Table 4, racemic cis/cis isomer (form 1)",5 to 50 µM
CC(=O)c1ccc(NC(=O)C2C(c3ccc(Cl)c(Cl)c3)OC3(C(=O)c4ccc5ccccc5c4C3=O)C2C(=O)O)cc1 (stereo not shown) [compound 1091],IC50,[2],5 to 50 µM
CCCCNC(=O)C1C(c2ccc(Cl)c(Cl)c2)OC2(C(=O)c3ccccc3C2=O)C1C(=O)O (stereo not shown) [compound 1050],IC50,[2],0.5 to 5 µM
CC(=O)c1ccc(NC(=O)C2C(c3ccc(Cl)c(Cl)c3)OC3(C(=O)c4ccc5ccccc5c4C3=O)C2C(=O)O)cc1 (stereo not shown) [compound 1095],IC50,[2],5 to 50 µM
CC(=O)c1ccc(NC(=O)C2C(c3ccc(Cl)c(Cl)c3)OC3(C(=O)c4cc5ccccc5cc4C3=O)C2C(=O)O)cc1 (stereo not shown) [compound 1090],IC50,[2],5 to 50 µM
"Cc1ccc2c(c1)C(=O)C1(OC(c3ccc(Cl)c(Cl)c3)C(C(=O)Nc3ccc(-c4csnn4)cc3)C1C(=O)O)C2=O (single isomer, unassigned) [A1008]",IC50,[1],< 0.5 µM
